The values that follow are results of earlier work, collected in patent US7795220B2, “Conformationally constrained parathyroid hormones with alpha-helix stabilizers” (The General Hospital Corporation, priority 2003, dated 2010).

This data set addresses T1, P1R (Homo sapiens, UniProt Q03431).
T1 sequence (Q03431 27-593): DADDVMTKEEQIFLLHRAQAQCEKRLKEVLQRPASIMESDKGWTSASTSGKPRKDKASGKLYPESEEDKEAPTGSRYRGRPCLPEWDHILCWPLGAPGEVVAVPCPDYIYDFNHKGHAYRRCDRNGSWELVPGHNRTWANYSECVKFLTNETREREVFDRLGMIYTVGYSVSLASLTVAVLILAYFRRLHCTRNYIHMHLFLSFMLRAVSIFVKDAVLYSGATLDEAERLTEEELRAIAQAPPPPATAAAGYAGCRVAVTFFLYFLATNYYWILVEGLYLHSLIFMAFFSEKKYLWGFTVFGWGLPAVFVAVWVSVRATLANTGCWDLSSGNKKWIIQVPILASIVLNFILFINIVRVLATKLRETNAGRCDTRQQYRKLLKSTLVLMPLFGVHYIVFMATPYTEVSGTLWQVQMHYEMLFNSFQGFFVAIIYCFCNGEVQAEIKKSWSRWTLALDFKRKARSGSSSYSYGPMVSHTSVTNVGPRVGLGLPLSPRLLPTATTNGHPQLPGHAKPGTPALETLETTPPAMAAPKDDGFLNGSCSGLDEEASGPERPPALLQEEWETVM
Conditions: literature; read-out: cAMP-signaling potency (EC50); cited from earlier work.

The term EC50 denotes the concentration needed to bring the measured effect to its halfway point. For PTH(1-34), the EC50 was approximately 2 nM.
